# Data as given in ChEMBL document CHEMBL1125972, “Synthesis of chemoreversible prodrugs of ARA-C” (Bioorg Med Chem Lett, 1991).
# Test: Half life value was determined
# Format: ADME
row,half-life [h],Compound
1,42,CC(C)(NC(=O)[C@@H](N)Cc1ccc(OCc2ccccc2)cc1)C(=O)Nc1ccn(C2O[C@H](CO)[C@@H](O)[C@@H]2O)c(=O)n1 (stereo partly specified)
2,360,CC(C)(NC(=O)CO)C(=O)Nc1ccn(C2O[C@H](CO)[C@@H](O)[C@@H]2O)c(=O)n1 (stereo partly specified)
3,1.4,CC(=O)[O-].CC(C)(NC(=O)CO)C(=O)Nc1ccn(C2O[C@H](CO)[C@@H](O)[C@@H]2O)c(=O)n1.[Na+] (stereo partly specified)
4,31,CC(=O)O.CC(C)(NC(=O)[C@@H](N)Cc1ccc(OCc2ccccc2)cc1)C(=O)Nc1ccn(C2O[C@H](CO)[C@@H](O)[C@@H]2O)c(=O)n1 (stereo partly specified)
5,860,CC(=O)O.CC(C)(NC(=O)CO)C(=O)Nc1ccn(C2O[C@H](CO)[C@@H](O)[C@@H]2O)c(=O)n1 (stereo partly specified)
6,0.3,CC(=O)[O-].CC(C)(NC(=O)[C@@H](N)Cc1ccc(OCc2ccccc2)cc1)C(=O)Nc1ccn(C2O[C@H](CO)[C@@H](O)[C@@H]2O)c(=O)n1.[Na+] (stereo partly specified)
